From patent US20250049885A1, “HYALURONIC ACID BINDING PEPTIDE AS A THERAPEUTIC TO CONTROL FIBROBLAST ACTIVATION AND FIBROTIC CAPSULE FORMATION” (SOUTH DAKOTA BOARD OF REGENTS, priority 2023, published 2025) come the findings set out here.

Ends that are not written are not given here.

Series [1] has as its system primary dermal fibroblasts. Kind of series: Cell morphology and alignment on functionalized surfaces (brightfield). In kind it is cell-based, human. As to conditions: vs cells on the other surface groups. On the procedure: FIGS. 3A-B depicts primary dermal fibroblasts seeded at 50.000 cells/154 mm^2 and incubated for 10 days on HABP and Scrambled HABP functionalized surfaces. APTMS surfaces were treated with 2% APTMS only and Untreated surfaces had no treatment other than PBS rinse. […] Decellularization occurred on Day 11. (Representative of average and standard deviation; N=3; scale bar represents 100 μm). […] (Representative of average and standard deviation; N=6).
APTMS functionalized and untreated experimental groups were established.
Untreated and HABP functionalized surfaces did have some fibroblasts with higher levels of alignment, but the majority of fibroblast cells in those groups maintained a similar distribution of alignment to the APTMS cultures.

For series [2], the system named is Col1 fibers deposited by dermal fibroblasts. The experiment in a line: Type I Collagen immunostaining and fiber analysis (CT-Fire). Particulars: p-value<0.01. Format: cell-based, human. The text has this: FIGS. 5A-G show Type I Collagen immunostaining results. FIG. 5A is a color cell culture stain: Fluorescent images of Col1 at 20× magnification. The scale bar represents 100 μm. FIG. 5B is a color image showing CT-Fire overlays of Col1 fibers from the above images, where different fiber characteristics are shown via different coloration. FIG. 5C is a graphical representation of the distribution of the number of Col1 fibers in each treatment group. FIG. 5D is a graphical representation of the distribution of Col1 fiber lengths in each treatment group. There is a notable difference between the APTMS group and the Untreated and HABP groups. FIG. 5E is a graphical representation of the measurement of fiber straightness. […] The closer the value is to one, the straighter individual fibers within the treatment groups are. FIG. 5F is a graphical representation of the Col1 fiber width comparison between treatment groups. […]
Immunostaining was done using α-SMA (D4K9N, Cell Signal) and Type I collagen primary antibodies. […] After this point, all further staining was conducted in the dark to preserve fluorescence. […]
Immunostaining for Type I Collagen (Col1) was done to determine the impact of the HABP surface treatment on ECM formation. […] Col1 fibers were analyzed and the analysis found significant differences in fiber angle, straightness, and width.

Series [3] relates to normal human adult primary dermal fibroblasts. The experiment in a line: Live/Dead fluorescent staining of fibroblasts cultured on functionalized surfaces. Format: cell-based. On the procedure:
(§1) FIGS. 2A-C depict assessment of the cytocompatibility of the peptide treated surfaces using Live/Dead and PrestoBlue assays. Presto Blue assay is a measure of cellular metabolic activity. FIG. 2A is a color image of a cell culture: Calcein-AM (green) and Propidium Iodide (red) were used to stain for live and dead cells respectively.
(§2) Surface functionalization was done with 2% APTMS and 1 mM HABP. 2% APTMS (in 2-propanol) was treated on the surface for 6 hours in a wet chamber at room temperature. Following the end of the culture period, three washes with DI H2O were used to remove the residual APTMS. A 1 mM HABP in DI H2O solution was added to the surface and left overnight at 4° C. in the wet chamber. After the peptide treatment is completed, the surfaces were rinsed 5 times with PBS for 5 minutes each. These functionalized surfaces were used for HA binding verification and cell seeding experiments. Two other experimental groups were established: one with only the APTMS treatment, and one with no surface treatment (Table 2).
(§3) Human primary dermal fibroblasts (HDFs) were cultured in a culture media consisting of DMEM, 10% fetal bovine serum (FBS), and 1% penicillin-streptomycin (10,000 IU/mL). The cells were rinsed with warm 1×PBS to remove any traces of FBS from the surface, and a 0.25% trypsin/EDTA treatment was used to detach the cells from the culture flask at 37° C. for 5 minutes. 4 mL of fresh media was added to the cells to inhibit the trypsin, and the suspended cells were withdrawn from the flask, counted using a hemocytometer, and added to a 15 ml centrifuge tube. The cells were centrifuged for 5 minutes at 1500 rpms, and the media was withdrawn and replaced with a calculated amount of fresh media in which the cells were resuspended. The cells were added to the functionalized MatTek surfaces, and after 6 hours, 2 mL of media containing 100 μg/mL ascorbic acid was added. The cells were cultured for 48-96 hours before further experimentation was conducted. […]

Assay in series [4]: as above
As to conditions: human; fibroblasts cultured on functionalized surface; read-out: Cell viability (Live/Dead). Format: cell-based, human. The protocol: as §1, §2, §3

Consider `CO[Si](CCCN)(OC)OC` [APTMS, 3-aminopropyltrimethoxysilane], for which the Cell morphology result in series [1] was “slightly stressed morphology”. Besides, in series [2], the “Col1 fiber width narrower than untreated cultures” value was found to be 5%.
Take GAHWQFNALTVR [HABP, GAHWQFNALTVR]: the “Cell viability vs control groups (Live/Dead)” value in series [3] (HABP vs APTMS treated and untreated surfaces) is listed as “no significant difference”. In addition, the “Cell viability (Live/Dead)” value in series [3] (fibroblasts cultured on functionalized surface) was 98.9%. The viability in series [4] was determined as 98.9%.
